According to patent US11076595B2, “1-(n,n-disubstituted carbamoyl) 4-(substituted sulfonyl)triazolin-5-one derivative, 4-(n,n-disubstituted carbamoyl) 1-(substituted sulfonyl)triazolin-5-one derivative, and herbicide containing said derivative as active ingredient” (HOKKO CHEMICAL INDUSTRY CO., LTD., priority 2017, dated 2021):

Assays:
Format in all cases: in vivo
[1] = tested on: Amaranthus viridis; experiment: Test Example 14: herbicidal effect test by foliage treatment in upland field; conditions: 7 days after sowing, 120 g/10a, 14 days after treatment
Method: (§1) This test was performed with two replications per one formulation concentration plot, and 14 days after the formulation treatments, the weed suppression rate (%) was determined according to the following equation (Math. 2). Weed suppression rate (%)=(1−average dry weight (g) of plants in treated plots/average dry weight (g) of plants in untreated plots)×100 [Math. 2]
(§2) A pot having a size of 36 cm^2 was filled with field soil (alluvial soil) and after uniformly mixing the soil of the surface layer of 1 cm with 20 grains of each weed seed of crabgrass, Echinochloa crus-galli, Chenopodium album and Amaranthus viridis, the surface layer was pressed lightly. Seven Days after the sowing, an emulsifiable concentrate prepared according to Formulation Example 15 by using the compound shown in Table 12 below was diluted with water, and the water-diluted formulation was sprayed on the soil surface at a ratio of 100 liter per 10 are. The application rate of the active ingredient, by conversion, corresponded to 120 g per 10 are. Fourteen Days after the formulation treatment, the herbicidal effect was evaluated by the same criteria as in Test Example 11.

[2] = tested on: Echinochloa crus-galli; experiment: as above; conditions: 7 days after sowing, 120 g/10a, 14 days after treatment
Method: as §1, §2

[3] = tested on: Scirpus juncoides; experiment: Test Example 11: herbicidal effect test by soil treatment in paddy field; conditions: 120 g/10a active ingredient, 14 days after treatment
How it was run: (§3)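 Puddled paddy soil with N:P:K 17:17:17 fertilizer in Wagner pots; 30 seeds per species sown at 0–1 cm, flooded to about 3 cm, kept in a glass greenhouse. Water-diluted emulsifiable concentrate dripped in immediately after sowing at 120 g a.i. per 10 are. Suppression from dry weight versus untreated at 14 days.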

[4] = tested on: Echinochloa crus-galli; experiment: as above; conditions: 120 g/10a active ingredient, 14 days after treatment
How it was run: as §3

[5] = tested on: Lindernia pyxidaria; experiment: as above; conditions: 120 g/10a active ingredient, 14 days after treatment
How it was run: as §3

[6] = tested on: Monochoria vaginalis; experiment: as above; conditions: 120 g/10a active ingredient, 14 days after treatment
How it was run: as §3

[7] = tested on: Chenopodium album; experiment: Test Example 14: herbicidal effect test by foliage treatment in upland field; conditions: 7 days after sowing, 120 g/10a, 14 days after treatment
Method: as §2

[8] = tested on: crabgrass; experiment: as above; conditions: 7 days after sowing, 120 g/10a, 14 days after treatment
Method: as §2

[9] = tested on: Scirpus juncoides; experiment: Test Example 12: herbicidal effect test by treatment during growing period in paddy field; conditions: 120 g/10a; treatment seven days after sowing in flooded paddy pot; assessed 14 days after treatment
How it was run: (§4)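 Puddled paddy soil in Wagner pots, 30 seeds per species sown 0-1 cm deep, flooded to about 3 cm in a greenhouse. Seven days after sowing, water-diluted emulsifiable concentrate was dripped in at 120 g active ingredient per 10 are. Suppression (%) from dry weight versus untreated at 14 days, two replicates.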

[10] = tested on: Echinochloa crus-galli; experiment: as above; conditions: 120 g/10a; treatment seven days after sowing in flooded paddy pot; assessed 14 days after treatment
How it was run: as §4

[11] = tested on: Lindernia pyxidaria; experiment: as above; conditions: 120 g/10a; treatment seven days after sowing in flooded paddy pot; assessed 14 days after treatment
How it was run: as §4

[12] = tested on: Monochoria vaginalis; experiment: as above; conditions: 120 g/10a; treatment seven days after sowing in flooded paddy pot; assessed 14 days after treatment
How it was run: as §4

SMILES | herbicidal effect, Amaranthus viridis [1] [%] | herbicidal effect, Echinochloa crus-galli [2] [%] | Weed suppression rate (%) Scirpus juncoides [3] [%] | Weed suppression rate (%) Echinochloa crus-galli [4] [%] | Weed suppression rate (%) Lindemia pyxidaria [5] [%] | Weed suppression rate (%) Monochoria vaginalis [6] [%] | herbicidal effect, Chenopodium album [7] [%] | herbicidal effect, Crabgrass [8] [%] | Weed suppression rate (%) Scirpus juncoides [9] [%] | Weed suppression rate (%) Echinochloa crus-galli [10] [%] | Weed suppression rate (%) Lindemia pyxidaria [11] [%] | Weed suppression rate (%) Monochoria vaginalis [12] [%]
CC(C)N(C(=O)n1cnn(S(=O)(=O)C2CC2)c1=O)c1ccc(F)cc1Cl [Compound 11-205] | 70 | 100 | 100 | 100 | 100 | 90 | 70 | 100 | 100 | 100 | 80 | 100
CC(C)N(C(=O)n1cnn(S(C)(=O)=O)c1=O)c1c(F)c(F)cc(F)c1F [Compound 11-17] | 100 | 70 | 100 | 100 | 90 | 80 | 30 | 60 | 100 | 100 | 70 | 100
CC(C)N(C(=O)n1cnn(S(=O)(=O)N(C)C)c1=O)c1ccc(Cl)cc1F [Compound 11-1072] | 90 | 80 | 90 | 90 | 80 | 80 | 80 | 90 | 90 | 100 | 90 | 60
CC(C)N(C(=O)n1cnn(S(=O)(=O)c2ccccc2F)c1=O)c1ccc(F)c(F)c1F [Compound 11-405] | 70 | 90 | 100 | 100 | 100 | 100 | 60 | 90 | 100 | 100 | 100 | 100
CN(C(=O)n1cnn(S(=O)(=O)C2CCCCC2)c1=O)c1ccc(F)cc1F [Compound 11-1129] | 70 | 70 | 100 | 100 | 100 | 100 | 60 | 90 | 100 | 100 | 70 | 80
CC(C)N(C(=O)n1cnn(S(=O)(=O)C(C)C)c1=O)c1ccc(Cl)cc1Br [Compound 11-71] | 60 | 100 | 100 | 100 | 90 | 70 | 70 | 100 | 100 | 100 | 70 | 70
CC(C)N(C(=O)n1cnn(S(=O)(=O)C(C)C)c1=O)c1ccc(C(F)(F)F)cc1F [Compound 11-76] | 80 | 100 | 60 | 100 | 80 | 100 | 60 | 100 | 60 | 100 | 60 | 80
CC(C)N(C(=O)n1cnn(S(=O)(=O)C2CC2)c1=O)c1ccc(Br)cc1Cl [Compound 11-209] | 30 | 90 | 100 | 100 | 100 | 90 | 60 | 90 | 100 | 100 | 80 | 90
CC(C)N(C(=O)n1cnn(S(=O)(=O)C(C)C)c1=O)c1ccccc1F [Compound 11-49] | 90 | 80 | 90 | 90 | 80 | 80 | 80 | 90 | 90 | 100 | 90 | 90
CC(C)N(C(=O)n1cnn(S(=O)(=O)C2CCCCC2)c1=O)c1cccc(F)c1F [Compound 11-293] | 60 | 90 | 100 | 100 | 100 | 100 | 70 | 100 | 100 | 100 | 100 | 100
CC(C)N(C(=O)n1cnn(S(=O)(=O)C2CC2)c1=O)c1ccc(C(F)(F)F)cc1F [Compound 11-217] | 60 | 100 | 80 | 100 | 100 | 100 | 70 | 100 | 80 | 100 | 80 | 90
